# Results from patent publication EP0541617B1, “1,4-DISUBSTITUTED PIPERAZINES” (NOVO NORDISK A/S, priority 1990, dated 1992).
# Key:
# [1] = target: T1, DA-uptake complex (Rattus norvegicus, UniProt P23977); test: Test 1: inhibition of 3H-GBR 12935 binding in a striatal membrane preparation
# T1 construct: in a striatal membrane preparation; from tissue; host or cells: striatum (membrane preparation)
# [2] = tested on: Male NMRI mice; test: Test 2: increase of motility of mice after intravenous administration (photocell crossings); assay type: in vivo; details: ED50, i.v., lowest ED50 value determined at a 20 min interval during the 360 min test period
# Protocol: The compounds were also tested for their ability to increase the motility of mice following intravenous administration using the method outlined below.
# Male NMRI mice are used (20 ± 2 g). The animals are housed 20-30 per cage under constant temperature (20 ± 1°C) and relative humidity (40-60%). The animals are brought into the experimental room in the afternoon, the day before they undergo testing.
# The experimentally-naive, uninjected mice are acclimatized by being placed in a plexiglass box (WLH: 20 x 20 x 38 cm), four per box, for a 120 min period, and then injected with the test compound whereafter they are replaced in the plexiglass box.
# The plexiglass box is equipped with a frame of photocells (spaced equidistantly) which are situated so as to detect locomotor behaviour of the animals (1 cm above the floor). The photocell chamber is housed in an sound-insulated, dimly-lit, ventilated chest. As a measure of exploratory behaviour, the number of photocell crossings in a 360 min period is detected using a minicomputer. Testing is made between 7:00 and 17.00 h.
# Drugs are injected i.v. simultaneously with start of testing; N = 4/dose; 4-5 doses of test drug is given in a volume of 10 ml/kg. […]
# T1 sequence (P23977 whole entry, one chain of several): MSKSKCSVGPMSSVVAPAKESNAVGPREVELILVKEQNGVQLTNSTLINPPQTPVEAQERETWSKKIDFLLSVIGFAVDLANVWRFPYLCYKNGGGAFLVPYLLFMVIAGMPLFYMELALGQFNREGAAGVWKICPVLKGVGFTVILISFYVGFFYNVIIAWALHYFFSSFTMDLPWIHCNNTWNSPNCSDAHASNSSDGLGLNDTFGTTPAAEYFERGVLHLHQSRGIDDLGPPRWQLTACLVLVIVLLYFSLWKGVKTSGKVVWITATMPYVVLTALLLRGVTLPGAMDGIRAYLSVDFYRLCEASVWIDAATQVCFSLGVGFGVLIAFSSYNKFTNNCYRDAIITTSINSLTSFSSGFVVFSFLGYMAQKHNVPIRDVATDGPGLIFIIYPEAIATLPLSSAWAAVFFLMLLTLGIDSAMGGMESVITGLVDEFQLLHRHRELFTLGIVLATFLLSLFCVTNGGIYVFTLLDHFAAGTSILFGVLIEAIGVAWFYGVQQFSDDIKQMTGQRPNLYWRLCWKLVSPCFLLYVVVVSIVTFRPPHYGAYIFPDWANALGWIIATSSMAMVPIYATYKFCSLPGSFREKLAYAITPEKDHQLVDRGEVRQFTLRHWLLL
Structure (SMILES),IC50 [1] [nM],Test 2 [2] [mg/kg]
"N#CCCCCN1CCN(CCOC(c2ccc(F)cc2)c2ccc(F)cc2)CC1 [Example 4A, 1-[2-(bis-(4-fluorophenyl)-methoxy)-ethyl]-4-(4-cyanobutyl)-piperazine]",18,2.4
"Fc1ccc(C(OCCN2CCN(CCCc3ccccc3)CC2)c2ccc(F)cc2)cc1 [GBR 12909, 1-(2-(bis(4-fluorophenyl)-methoxy)-ethyl)-4-(3-phenyl-propyl) piperazine, reference compound]",–,2.3
